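Assay format: 96-well plates, 48-hour exposure. Here, GI50 denotes the concentration required for 50% inhibition of growth.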 Calls of active or inactive are those of the source. No stated cut-off is given here; in the data, active = GI50 up to about 1.1 µM and inactive = higher.
Key:
Experiment in all cases: growth of human tumour cells (NCI), 48 h
[1] = system: SN12C
[2] = system: EKVX
[3] = system: TK-10
[4] = system: K562
[5] = system: SF-295
[6] = system: HCT-15
[7] = system: SK-MEL-28
[8] = system: U-251
[9] = system: IGROV-1
[10] = system: MDA-MB-435
[11] = system: MCF7
[12] = system: M14
[13] = system: HCT-116
[14] = system: SK-MEL-2
[15] = system: OVCAR-8
[16] = system: SW-620
[17] = system: DU-145
[18] = system: HOP-92
[19] = system: SNB-19
[20] = system: SF-268

SMILES | GI50 [1] | GI50 [2] | GI50 [3] | GI50 [4] | GI50 [5] | GI50 [6] [µM] | GI50 [7] | GI50 [8] | GI50 [9] | GI50 [10] | GI50 [11] | GI50 [12] | GI50 [13] | GI50 [14] | GI50 [15] | GI50 [16] | GI50 [17] | GI50 [18] | GI50 [19] | GI50 [20]
COc1ccc(CNc2nc(NCc3ccc(OC)c(OC)c3)nc(NC3CCCCC3)n2)cc1 | 6.18 µM (inactive) | 10.4 µM (inactive) | 18.5 µM (inactive) | 1.24 µM (inactive) | 2.04 µM (inactive) | 0.731 | > 100 µM (inactive) | 3.44 µM (inactive) | 4.49 µM (inactive) | 0.531 µM (active) | 1.29 µM (inactive) | 4.61 µM (inactive) | 2.69 µM (inactive) | 4.26 µM (inactive) | 7.41 µM (inactive) | 2.89 µM (inactive) | 3.4 µM (inactive) | > 100 µM (inactive) | > 100 µM (inactive) | –
CCN1CCCCC(=N\O)/C(=N/O)CCCC1 | > 100 µM (inactive) | 26.1 µM (inactive) | > 100 µM (inactive) | – | > 100 µM (inactive) | > 100 | > 100 µM (inactive) | > 100 µM (inactive) | > 100 µM (inactive) | > 100 µM (inactive) | > 100 µM (inactive) | > 100 µM (inactive) | > 100 µM (inactive) | > 100 µM (inactive) | > 100 µM (inactive) | > 100 µM (inactive) | > 100 µM (inactive) | > 100 µM (inactive) | > 100 µM (inactive) | > 100 µM (inactive)
CCOC(=O)c1cccc(NC(=O)CBr)c1 | 0.458 µM (active) | 1.62 µM (inactive) | 1.67 µM (inactive) | 0.362 µM (active) | 4.36 µM (inactive) | 1.28 | 2.62 µM (inactive) | 0.581 µM (active) | 0.959 µM (active) | 1.1 µM (active) | 1.19 µM (inactive) | 1.3 µM (inactive) | 0.664 µM (active) | 1.56 µM (inactive) | 1.11 µM (active) | 0.361 µM (active) | 1.82 µM (inactive) | 1.93 µM (inactive) | 4.4 µM (inactive) | –
COc1cc(C(C)=O)cc(C(=O)N(C(C)C)C(C)C)c1[Si](C)(C)C | – | – | > 100 µM (inactive) | – | > 100 µM (inactive) | > 100 | > 100 µM (inactive) | > 100 µM (inactive) | > 100 µM (inactive) | > 100 µM (inactive) | > 100 µM (inactive) | > 100 µM (inactive) | > 100 µM (inactive) | > 100 µM (inactive) | > 100 µM (inactive) | > 100 µM (inactive) | > 100 µM (inactive) | 99.3 µM (inactive) | > 100 µM (inactive) | > 100 µM (inactive)
CC1(C)/C(=N\NC(N)=O)C2CCC1C2 (stereo unspecified) | – | > 100 µM (inactive) | > 100 µM (inactive) | > 100 µM (inactive) | > 100 µM (inactive) | > 100 | > 100 µM (inactive) | > 100 µM (inactive) | > 100 µM (inactive) | > 100 µM (inactive) | > 100 µM (inactive) | > 100 µM (inactive) | > 100 µM (inactive) | > 100 µM (inactive) | > 100 µM (inactive) | > 100 µM (inactive) | > 100 µM (inactive) | > 100 µM (inactive) | > 100 µM (inactive) | > 100 µM (inactive)
CC1CC(C)CC(C)C(O)/C(C#N)=C/C=C/CC(C2CCCC2C(=O)O)OC(=O)CC(O)C(C)C1 (stereo unspecified) | 0.029 µM (active) | 0.064 µM (active) | 0.0301 µM (active) | – | 0.0303 µM (active) | 0.0131 | < 0.0111 µM (active) | 0.0115 µM (active) | < 0.0118 µM (active) | < 0.01 µM (active) | 0.0102 µM (active) | < 0.0121 µM (active) | 0.0223 µM (active) | < 0.01 µM (active) | 0.0192 µM (active) | 0.0335 µM (active) | 0.111 µM (active) | < 0.01 µM (active) | 0.0135 µM (active) | 0.0133 µM (active)
COc1ccc(C(OCC2OC(n3cc(C)c(=O)[nH]c3=O)CC2n2cc(Cn3cc(Br)c(=O)[nH]c3=O)nn2)(c2ccccc2)c2ccccc2)cc1 (stereo unspecified) | > 100 µM (inactive) | > 100 µM (inactive) | > 100 µM (inactive) | – | > 100 µM (inactive) | > 100 | > 100 µM (inactive) | 66.5 µM (inactive) | 38.5 µM (inactive) | 6.55 µM (inactive) | 16 µM (inactive) | > 100 µM (inactive) | > 100 µM (inactive) | > 100 µM (inactive) | > 100 µM (inactive) | > 100 µM (inactive) | > 100 µM (inactive) | > 100 µM (inactive) | > 100 µM (inactive) | > 100 µM (inactive)
COC(=O)c1c2c(cc3c1CC1(C3)Cc3cc4c(c(C(C)=O)c3C1)CCC4)C=CC2 (stereo unspecified) | > 31.6 µM (inactive) | > 31.6 µM (inactive) | > 31.6 µM (inactive) | 27 µM (inactive) | > 31.6 µM (inactive) | 18.3 | 29.4 µM (inactive) | > 31.6 µM (inactive) | > 31.6 µM (inactive) | 30.5 µM (inactive) | 22.2 µM (inactive) | > 31.6 µM (inactive) | 27.9 µM (inactive) | > 31.6 µM (inactive) | > 31.6 µM (inactive) | > 10 µM (inactive) | > 31.6 µM (inactive) | > 31.6 µM (inactive) | > 31.6 µM (inactive) | > 31.6 µM (inactive)
CCNC(=S)NNC(=O)c1ccccc1Nc1ccccc1C(=O)NNC(=S)NCC | > 100 µM (inactive) | > 100 µM (inactive) | > 100 µM (inactive) | > 100 µM (inactive) | > 100 µM (inactive) | > 100 | > 100 µM (inactive) | > 100 µM (inactive) | > 100 µM (inactive) | > 100 µM (inactive) | > 100 µM (inactive) | > 100 µM (inactive) | > 100 µM (inactive) | > 100 µM (inactive) | > 100 µM (inactive) | > 100 µM (inactive) | > 100 µM (inactive) | > 100 µM (inactive) | > 100 µM (inactive) | –
CCOC(=O)c1cc(C)nc2c1c(=O)n(-c1ccccc1)c(=O)n2CCCCN1CCN(c2ccccc2)CC1 | 49.9 µM (inactive) | > 100 µM (inactive) | > 100 µM (inactive) | 24.9 µM (inactive) | > 100 µM (inactive) | 49.3 | > 100 µM (inactive) | > 100 µM (inactive) | > 100 µM (inactive) | > 100 µM (inactive) | 28.3 µM (inactive) | 38.9 µM (inactive) | > 100 µM (inactive) | 64.9 µM (inactive) | > 100 µM (inactive) | > 100 µM (inactive) | > 100 µM (inactive) | > 100 µM (inactive) | – | > 100 µM (inactive)
CC(=O)OCC1OC(n2c(C)c(/N=N/c3ccc(Cl)cc3)c(C)c(C#N)c2=S)C(OC(C)=O)C(OC(C)=O)C1OC(C)=O (stereo unspecified) | > 100 µM (inactive) | – | 40.5 µM (inactive) | > 100 µM (inactive) | 25.1 µM (inactive) | > 100 | > 100 µM (inactive) | 28.1 µM (inactive) | 41.8 µM (inactive) | > 100 µM (inactive) | > 100 µM (inactive) | > 100 µM (inactive) | 48.1 µM (inactive) | 34.2 µM (inactive) | – | > 100 µM (inactive) | 73.3 µM (inactive) | 0.205 µM (active) | 28.8 µM (inactive) | 27.9 µM (inactive)
Clc1ccc2c(NCCCC/N=C/c3ccccc3)ccnc2c1 | 5.69 µM (inactive) | 15.5 µM (inactive) | 18.6 µM (inactive) | 5.01 µM (inactive) | 10.4 µM (inactive) | 17.8 | 15 µM (inactive) | 11 µM (inactive) | 11.8 µM (inactive) | 12.6 µM (inactive) | 11.1 µM (inactive) | 14.4 µM (inactive) | 6.24 µM (inactive) | 11.8 µM (inactive) | 11.2 µM (inactive) | 5.78 µM (inactive) | 20.7 µM (inactive) | 5.52 µM (inactive) | 14.8 µM (inactive) | 14.2 µM (inactive)
Oc1cc(-c2cccc(Cl)c2)nc2ncccc12 | 0.141 µM (active) | – | 24.3 µM (inactive) | 0.0208 µM (active) | 0.0533 µM (active) | 0.0489 | 0.183 µM (active) | 0.106 µM (active) | 0.0813 µM (active) | < 0.01 µM (active) | 0.122 µM (active) | 0.0845 µM (active) | 0.0312 µM (active) | 0.197 µM (active) | 0.377 µM (active) | 0.114 µM (active) | 0.644 µM (active) | 21 µM (inactive) | 0.192 µM (active) | 5.53 µM (inactive)
NCCCCNCCCN1CC1 | 1.19 µM (inactive) | 3.15 µM (inactive) | 2.04 µM (inactive) | 1.75 µM (inactive) | 4.09 µM (inactive) | 4.91 | 1.72 µM (inactive) | 1.3 µM (inactive) | 2.77 µM (inactive) | 1.15 µM (inactive) | 20.6 µM (inactive) | 2.89 µM (inactive) | 2.42 µM (inactive) | 0.752 µM (active) | 0.883 µM (active) | 4.16 µM (inactive) | 1.77 µM (inactive) | 0.279 µM (active) | 1.86 µM (inactive) | 0.957 µM (active)
CC1=CC(=O)[C@@H](O)[C@]2(C)[C@H]3[C@@]4(O)OC[C@@]35[C@@H](C[C@@H]12)OC(=O)C(OC(=O)CC1=CCCC1)[C@H]5[C@@H](C)[C@H]4O (stereo partly specified) | 0.0481 µM (active) | 0.224 µM (active) | 0.0408 µM (active) | 0.0246 µM (active) | 0.0649 µM (active) | 0.0593 | 0.0204 µM (active) | 0.0158 µM (active) | 0.0188 µM (active) | 0.0404 µM (active) | < 0.0142 µM (active) | 0.0294 µM (active) | 0.0255 µM (active) | 0.0547 µM (active) | 0.0279 µM (active) | 0.0622 µM (active) | 0.0665 µM (active) | 0.0548 µM (active) | 0.0344 µM (active) | 0.0345 µM (active)

Reference: ChEMBL document CHEMBL1201862, “PubChem BioAssay data set” (2004)
